From ChEMBL document CHEMBL1124438, “Analysis of the in vitro antiviral activity of certain ribonucleosides against parainfluenza virus using a novel computer aided receptor modeling procedure” (1989)

Experiments:
Assay type in all cases: functional
Human respirovirus 3 = assay: Virus rating against parainfluenza virus type 3
Human alphaherpesvirus 2 = assay: Virus rating of against herpes simplex virus type 2
Human rhinovirus 1A = assay: Virus rating against rhinovirus type 1A
Human adenovirus 2 = assay: Virus rating against adenovirus type 2

Structure (SMILES)	Rating (Human respirovirus 3)	Rating (Human alphaherpesvirus 2)	Rating (Human rhinovirus 1A)	Rating (Human adenovirus 2)
O=c1[nH]c(=O)c2[nH]nc([C@@H]3O[C@H](CO)[C@@H](O)[C@H]3O)c2[nH]1	0.68	0.12	0	0
CSc1ncnc2c1cnn2C1O[C@H](CO)[C@@H](O)[C@H]1O (stereo not given in full)	1.05	0	0.6	0
Nc1nn(C2O[C@H](CO)[C@@H](O)[C@H]2O)c2nc[nH]c(=O)c12 (stereo not given in full)	0.28	0	0	0
Cn1nc([C@@H]2O[C@H](CO)[C@@H](O)[C@H]2O)c2ncnc(N)c21	0.86	0.2	0	0
Nc1nc(Cl)nc2c1cnn2C1O[C@H](CO)[C@@H](O)[C@H]1O (stereo not given in full)	0.15	0	0	0
NC(=O)c1cn(C2O[C@H](CO)[C@@H](O)[C@H]2O)[nH]c1=O (stereo not given in full)	0.15	0	0	0
Nc1nc(Cl)cc2c1ncn2C1O[C@H](CO)[C@@H](O)[C@H]1O (stereo not given in full)	0.35	0	0	0
Cn1nc([C@@H]2O[C@H](CO)[C@@H](O)[C@H]2O)c2nc(=O)[nH]c(N)c21	0.88	–	–	–
OC[C@H]1O[C@@H](C2=NNC3C(=S)N=CN=C23)[C@H](O)[C@@H]1O (stereo not given in full)	1.1	0	0.9	1
Nc1[nH]c(=O)nc2c([C@@H]3O[C@H](CO)[C@@H](O)[C@H]3O)n[nH]c12	1.22	0.75	0	0
Nc1cc2c(ncn2[C@@H]2O[C@H](CO)[C@@H](O)[C@H]2O)c(=O)[nH]1	0.8	1.06	1	0.2
OC[C@H]1OC(n2ncc3c(S)ncnc32)[C@H](O)[C@@H]1O (stereo not given in full)	0.7	0	0	0
OC[C@H]1O[C@@H](n2ccc3c(S)ncnc32)[C@H](O)[C@@H]1O	1.15	–	–	–
N=C(N)c1ncn([C@@H]2O[C@H](CO)[C@@H](O)[C@H]2O)n1 [TARIBAVIRIN]	1.2	0	0.2	0
NC(=O)c1csc([C@@H]2O[C@H](CO)[C@@H](O)[C@H]2O)n1 [TIAZOFURIN]	1.3	1.19	0	0.2
O=C1N=CN=C2C([C@@H]3O[C@H](CO)[C@@H](O)[C@H]3O)=NNC12 (stereo not given in full)	0.94	0	0.3	0
OC[C@H]1OC(n2cc3c(O)nc(Cl)nc3n2)[C@H](O)[C@@H]1O (stereo not given in full)	0.25	0	0	0
Nc1ncnc2c([C@@H]3O[C@H](CO)[C@@H](O)[C@H]3O)[nH]nc12 [FORMYCIN]	1.4	0.2	0.1	0
CSc1ncnc2c1ccn2[C@@H]1O[C@H](CO)[C@@H](O)[C@H]1O	0.9	0	0.6	0
CN1C=NC(N)=C2NNC([C@@H]3O[C@H](CO)[C@@H](O)[C@H]3O)=C21	1.28	0	0	0
Cn1cnc2c([C@@H]3O[C@H](CO)[C@@H](O)[C@H]3O)nnc-2c1N	1.16	0.88	0	0
CSc1ncnc2c1ncn2[C@@H]1O[C@H](CO)[C@@H](O)[C@H]1O	2.2	1.25	0.8	0
CSc1ncnc2c([C@@H]3O[C@H](CO)[C@@H](O)[C@H]3O)n[nH]c12	1.35	0.3	0	0.8
NC(=O)c1ccnc([C@@H]2O[C@H](CO)[C@@H](O)[C@H]2O)n1	0.25	0	0	0
NC(=O)c1ncn([C@@H]2O[C@H](CO)[C@@H](O)[C@H]2O)n1 [RIBAVIRIN]	1.3	1.4	0.7	0.3
COc1c([C@@H]2O[C@H](CO)[C@@H](O)[C@H]2O)nn(C)c1C(N)=O	1.65	0.3	0	1
NC(=O)C1NN=C([C@@H]2O[C@H](CO)[C@@H](O)[C@H]2O)C1=O (stereo not given in full)	1.65	1	0.6	0
O=c1[nH]cnc2c1ccn2[C@@H]1O[C@H](CO)[C@@H](O)[C@H]1O [IMMUNICILLIN H]	0.08	–	0	0
